Test results published in patent US20220119354A1, “DIAMINO-SUBSTITUTED PYRIDINES AND PYRIMIDINES AS HERBICIDES” (FMC Corporation, priority 2019, published 2022).

Assays:
Assay type in all cases: in vivo
corn (Zea mays) = experiment: Test A postemergence, corn; conditions: Zea mays, post-emergence, 240 h, 0 to 100 scale
Procedure, shortened: (§1)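 Greenhouse pot test, loam/sand soil. Pre: directed soil spray at planting; post: foliar spray at 1–2 leaf stage (2–10 cm). Chemical in non-phytotoxic solvent + surfactant. Visual rating ~10 d, 0 = no effect, 100 = complete control.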

[1] = test system: wheat (Triticum aestivum); experiment: Test A postemergence, wheat; conditions: Triticum aestivum, post-emergence, 240 h, 0 to 100 scale, read-out: Plant response rating, Wheat
Procedure, shortened: as §1

[2] = test system: foxtail, giant (Setaria faberii); experiment: Test A preemergence, giant foxtail; conditions: 0 to 100 scale
Procedure, shortened: as §1

[3] = test system: galium (catchweed bedstraw, Galium aparine); experiment: Test A postemergence, galium; conditions: Galium, post-emergence, 240 h, 0 to 100 scale, read-out: Plant response rating, Galium
Procedure, shortened: as §1

[4] = test system: pigweed (Amaranthus retroflexus); experiment: Test A preemergence, pigweed; conditions: 0 to 100 scale
Procedure, shortened: as §1

[5] = test system: barnyardgrass (Echinochloa crus-galli); experiment: Test A postemergence, barnyardgrass; conditions: Echinochloa crus-galli, post-emergence, 240 h, 0 to 100 scale, read-out: Plant response rating, Barnyardgrass
Procedure, shortened: as §1

[6] = test system: sedge, umbrella (small-flower umbrella sedge, Cyperus difformis); experiment: Test B flooded paddy test, umbrella sedge; conditions: Cyperus difformis, 360 h; Flood, 250 g ai/ha, applied to paddy water, 2-leaf stage, visual evaluation after 13 to 15 d; read-out: Plant response rating, Sedge, Umbrella (0 to 100 scale, 0 is no effect, 100 is complete control)
Procedure, shortened: (§2)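 Pots flooded to 3 cm above the soil when treated, with test compound added straight to the water and the flood maintained. Treated plants were at the 2-leaf stage and stayed 13–15 d in greenhouse. Response versus untreated controls scored visually from 0 (no effect) to 100 (complete control).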

[7] = test system: barnyardgrass (Echinochloa crus-galli); experiment: Test B flooded paddy test, barnyardgrass; conditions: Echinochloa crus-galli, 360 h; Flood, 250 g ai/ha, applied to paddy water, 2-leaf stage, visual evaluation after 13 to 15 d; read-out: Plant response rating, Barnyardgrass (0 to 100 scale, 0 is no effect, 100 is complete control)
Procedure, shortened: as §2

[8] = test system: ragweed (common ragweed, Ambrosia elatior); experiment: Test A preemergence, ragweed; conditions: 0 to 100 scale
Procedure, shortened: as §1

[9] = test system: foxtail, giant (Setaria faberii); experiment: Test A postemergence, giant foxtail; conditions: Setaria faberi, post-emergence, 240 h, 0 to 100 scale, read-out: Plant response rating, Foxtail, Giant
Procedure, shortened: as §1

[10] = test system: ryegrass, Italian (Lolium multiflorum); experiment: Test A preemergence, Italian ryegrass; conditions: 0 to 100 scale
Procedure, shortened: as §1

[11] = test system: barnyardgrass (Echinochloa crus-galli); experiment: Test A preemergence, barnyardgrass; conditions: 0 to 100 scale
Procedure, shortened: as §1

rice (Oryza sativa) = experiment: Test B flooded paddy test, rice; conditions: Oryza sativa, 360 h; Flood, 250 g ai/ha, applied to paddy water, 2-leaf stage, visual evaluation after 13 to 15 d; read-out: Plant response rating, Rice (0 to 100 scale, 0 is no effect, 100 is complete control)
Procedure, shortened: as §2

[12] = test system: ducksalad (Heteranthera limosa); experiment: Test B flooded paddy test, ducksalad; conditions: Heteranthera limosa, 360 h; Flood, 250 g ai/ha, applied to paddy water, 2-leaf stage, visual evaluation after 13 to 15 d; read-out: Plant response rating, Ducksalad (0 to 100 scale, 0 is no effect, 100 is complete control)
Procedure, shortened: as §2

kochia (Kochia scoparia) [13] = experiment: Test A preemergence, kochia; conditions: 0 to 100 scale
Procedure, shortened: as §1

[14] = test system: ryegrass, Italian (Lolium multiflorum); experiment: Test A postemergence, Italian ryegrass; conditions: Lolium multiflorum, post-emergence, 240 h, 0 to 100 scale, read-out: Plant response rating, Ryegrass, Italian
Procedure, shortened: as §1

[15] = test system: blackgrass (Alopecurus myosuroides); experiment: Test A postemergence, blackgrass; conditions: Alopecurus myosuroides, post-emergence, 240 h, 0 to 100 scale, read-out: Plant response rating, Blackgrass
Procedure, shortened: as §1

kochia (Kochia scoparia) [16] = experiment: Test A postemergence, kochia; conditions: Bassia scoparia, post-emergence, 240 h, 0 to 100 scale, read-out: Plant response rating, Kochia
Procedure, shortened: as §1

[17] = test system: pigweed (Amaranthus retroflexus); experiment: Test A postemergence, pigweed; conditions: Amaranthus retroflexus, post-emergence, 240 h, 0 to 100 scale, read-out: Plant response rating, Pigweed
Procedure, shortened: as §1

[18] = test system: ragweed (common ragweed, Ambrosia elatior); experiment: Test A postemergence, ragweed; conditions: Ambrosia artemisiifolia, post-emergence, 240 h, 0 to 100 scale, read-out: Plant response rating, Ragweed
Procedure, shortened: as §1

C[C@@H](Nc1ncc(C(F)(F)F)c(N)n1)C1Cc2ccccc2C1 [Compound 13, N2-[(1R)-1-(2,3-dihydro-1H-inden-2-yl)ethyl]-5-(trifluoromethyl)-2,4-pyrimidinediamine]
Corn plant response rating (crop injury, 0 = no effect, 100 = complete kill) at 125 g/ha (corn (Zea mays); 125 g ai/ha): 10%
Corn plant response rating (crop injury, 0 = no effect, 100 = complete kill) at 500 g/ha (corn (Zea mays); 500 g ai/ha): 60%
plant injury at 125 g/ha ([1]; 125 g ai/ha): 0%
plant injury at 500 g/ha ([1]; 500 g ai/ha): 20%
Plant response rating, Foxtail, Giant ([2]; 125 g ai/ha): 100
Plant response rating, Foxtail, Giant ([2]; 500 g ai/ha): 100
pest or weed control at 125 g/ha ([3]; 125 g ai/ha): 80%
pest or weed control at 500 g/ha ([3]; 500 g ai/ha): 80%
Plant response rating, Pigweed ([4]; 125 g ai/ha): 100
Plant response rating, Pigweed ([4]; 500 g ai/ha): 100
pest or weed control at 125 g/ha ([5]; 125 g ai/ha): 30%
pest or weed control at 500 g/ha ([5]; 500 g ai/ha): 60%
pest or weed control at 250 g/ha [6]: 95%
pest or weed control at 250 g/ha [7]: 90%
Plant response rating, Ragweed ([8]; 125 g ai/ha): 100
Plant response rating, Ragweed ([8]; 500 g ai/ha): 100
pest or weed control at 125 g/ha ([9]; 125 g ai/ha): 80%
pest or weed control at 500 g/ha ([9]; 500 g ai/ha): 100%
Plant response rating, Ryegrass, Italian ([10]; 125 g ai/ha): 60
Plant response rating, Ryegrass, Italian ([10]; 500 g ai/ha): 100
Plant response rating, Barnyardgrass ([11]; 125 g ai/ha): 90
Plant response rating, Barnyardgrass ([11]; 500 g ai/ha): 100
plant injury at 250 g/ha (rice (Oryza sativa)): 10%
pest or weed control at 250 g/ha [12]: 75%
Plant response rating, Kochia (kochia (Kochia scoparia) [13]; 125 g ai/ha): 100
Plant response rating, Kochia (kochia (Kochia scoparia) [13]; 500 g ai/ha): 100
pest or weed control at 125 g/ha ([14]; 125 g ai/ha): 0%
pest or weed control at 500 g/ha ([14]; 500 g ai/ha): 20%
pest or weed control at 125 g/ha ([15]; 125 g ai/ha): 10%
pest or weed control at 500 g/ha ([15]; 500 g ai/ha): 30%
pest or weed control at 125 g/ha (kochia (Kochia scoparia) [16]; 125 g ai/ha): 90%
pest or weed control at 500 g/ha (kochia (Kochia scoparia) [16]; 500 g ai/ha): 100%
pest or weed control at 125 g/ha ([17]; 125 g ai/ha): 100%
pest or weed control at 500 g/ha ([17]; 500 g ai/ha): 100%
pest or weed control at 125 g/ha ([18]; 125 g ai/ha): 30%
pest or weed control at 500 g/ha ([18]; 500 g ai/ha): 80%
